biological target: T1, USP7, full-length, native C-Terminus (Homo sapiens, UniProt Q93009); assay: Biochemical USP7 assay with Ubiquitin-Rho110 substrate, compounds pre-incubated with USP7 (USP7_Ub-Rho preInc); details: compounds pre-mixed with USP7, 1 hour incubation, before substrate; read-out: USP7 Ub-Rho preInc (IC50)
T1 construct: USP7, full-length, native C-Terminus, 0.2 nM
Method: Biochemical USP7 assays using Ubiquitin-Rho110 as a substrate: The final assay conditions were as follows: The Reaction Buffer consisted of: 50 mM Tris (pH 7.5), 0.01% (v/v) Triton X-100, 2.5 mM Dithiothreitol, 0.1% (w/v) bovine gamma globulin (Sigma cat #G5009-25G); USP7, full-length, native C-Terminus, 0.2 nM; the substrate, Ubiquitin-Rho110 (Boston Biochem cat #U-555), 1 uM. Reactions were carried out for 1 hour at room temperature, in black 20 μL volume polystyrene ProxiPlate 384 F Plus® (PerkinElmer cat #6008260).
Test compounds, including a control USP7 inhibitor (Ub-aldehyde, Boston Biochem cat #U-201) were serially diluted in DMSO, in 384 well clear V-bottom polypropylene plates (Greiner cat #781280). Compounds in DMSO were diluted 10-fold into Reaction Buffer, to achieve 3-fold the final desired concentration. The substrate, Ubiquitin-Rho110 (Boston Biochem cat #U-555), was prepared at 3 μM (3-fold the final concentration) and 5 ul was dispensed into the reaction plate. 5 ul of the compounds (diluted in Reaction Buffer at 3-fold the final concentration) were transferred to the reaction plate. 5 ul of 0.6 nM USP7 (diluted in Reaction Buffer at 3-fold the final concentration) was transferred to the reaction plate to initiate the reaction. After 1 hour incubation at room temperature the reaction was quenched by the addition of 5 ul of 400 mM acetic acid. The enzymatic product was measured by quantifying the fluorescence signal of cleaved Rhodamine-110 using excitation at 485 nm and emission at 535 nm. When pre-incubation of USP7 with compounds was required, the order of addition of reagents was modified to pre-mix the compounds with USP7 (with a 1 hour incubation period), prior to the addition of the substrate and the initiation of the reaction period. Percentage inhibition values were calculated relative to a no enzyme control and a uninhibited enzyme control. Curve fitting and IC50 calculations were carried out using Genedata Screener software.

T1 sequence (Q93009 whole entry): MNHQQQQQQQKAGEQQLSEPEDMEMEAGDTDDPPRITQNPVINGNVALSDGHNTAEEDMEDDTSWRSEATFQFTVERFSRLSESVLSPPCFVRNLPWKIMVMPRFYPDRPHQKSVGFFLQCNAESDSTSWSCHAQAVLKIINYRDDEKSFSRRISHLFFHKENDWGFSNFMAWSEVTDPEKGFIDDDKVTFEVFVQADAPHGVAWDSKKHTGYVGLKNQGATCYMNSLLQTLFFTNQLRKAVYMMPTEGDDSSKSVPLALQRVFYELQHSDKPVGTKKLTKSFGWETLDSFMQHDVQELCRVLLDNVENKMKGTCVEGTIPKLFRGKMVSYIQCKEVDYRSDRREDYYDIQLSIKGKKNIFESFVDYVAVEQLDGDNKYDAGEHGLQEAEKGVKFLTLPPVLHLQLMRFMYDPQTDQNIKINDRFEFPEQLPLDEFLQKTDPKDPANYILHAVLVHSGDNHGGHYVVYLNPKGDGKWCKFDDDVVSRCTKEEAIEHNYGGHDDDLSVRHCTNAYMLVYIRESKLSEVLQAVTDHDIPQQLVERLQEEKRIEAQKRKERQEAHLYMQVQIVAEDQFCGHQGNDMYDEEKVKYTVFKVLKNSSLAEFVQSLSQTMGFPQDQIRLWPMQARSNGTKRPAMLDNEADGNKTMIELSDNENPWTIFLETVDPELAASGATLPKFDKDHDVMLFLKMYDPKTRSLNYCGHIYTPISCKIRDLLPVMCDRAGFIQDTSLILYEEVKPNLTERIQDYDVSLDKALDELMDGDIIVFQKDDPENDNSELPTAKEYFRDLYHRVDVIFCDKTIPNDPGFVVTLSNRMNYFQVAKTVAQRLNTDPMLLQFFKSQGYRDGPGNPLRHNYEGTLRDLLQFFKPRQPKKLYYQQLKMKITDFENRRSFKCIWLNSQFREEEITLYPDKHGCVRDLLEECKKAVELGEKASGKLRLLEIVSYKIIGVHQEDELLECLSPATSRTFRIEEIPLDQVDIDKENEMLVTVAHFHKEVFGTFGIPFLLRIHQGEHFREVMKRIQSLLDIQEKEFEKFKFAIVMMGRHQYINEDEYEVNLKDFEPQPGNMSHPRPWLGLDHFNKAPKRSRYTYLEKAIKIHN

Row | IC50 | SMILES
1 | 106 µM | CCc1c(-c2ccc(O)c(C(N)=O)c2)cnc(N)c1-c1ccc(O)cc1 [Compound 95, 5-[6-amino-4-ethyl-5-(4-hydroxyphenyl)-3-pyridyl]-2-hydroxy-benzamide]
2 | 60.7 µM | CCc1c(-c2ccc(O)cc2)cnc(N)c1-c1ccccc1 [Compound 16, 4-(6-amino-4-ethyl-5-phenyl-3-pyridyl)phenol]
3 | > 63.3 µM | CCc1c(-c2ccccc2C)cnc(N)c1-c1ccc(O)cc1 [Compound 33, 4-[2-amino-4-ethyl-5-(o-tolyl)-3-pyridyl]phenol]
4 | 11 µM | CCc1c(-c2cccc(Cl)c2)cnc(N)c1-c1ccc(O)cc1 [Compound 77, 4-[2-amino-5-(3-chlorophenyl)-4-ethyl-3-pyridyl]phenol]
5 | > 20 µM | CCc1c(-c2ccc(O)cc2)cnc(N)c1-c1ccc(F)c(F)c1 [Compound 18, 4-[6-amino-5-(3,4-difluorophenyl)-4-ethyl-3-pyridyl]phenol]
6 | 136 µM | CCc1c(-c2cccc(NC(C)=O)c2)cnc(N)c1-c1ccc2cn[nH]c2c1 [Compound 14, N-[3-[6-amino-4-ethyl-5-(1H-indazol-6-yl)-3-pyridyl]phenyl]acetamide]
7 | 48.7 µM | CCc1c(-c2ccc(O)cc2)cnc(N)c1-c1cccc(CC#N)c1 [Compound 27, 2-[3-[2-amino-4-ethyl-5-(4-hydroxyphenyl)-3-pyridyl]phenyl]acetonitrile]
8 | > 20 µM | CCc1c(-c2ccc(CO)cc2)cnc(N)c1-c1ccc(O)cc1 [Compound 55, 4-[2-amino-4-ethyl-5-[4-(hydroxymethyl)phenyl]-3-pyridyl]phenol]
9 | 11.6 µM | CCc1c(-c2ccc(F)c(F)c2)cnc(N)c1-c1ccc(O)cc1 [Compound 48, 4-[2-amino-5-(3,4-difluorophenyl)-4-ethyl-3-pyridyl]phenol]
10 | 2.1 µM | CCc1c(-c2ccc(O)cc2)cnc(N)c1-c1ccc2[nH]ncc2c1 [Compound 87, 4-[6-amino-4-ethyl-5-(1H-indazol-5-yl)-3-pyridyl]phenol]
11 | 7.8 µM | CCc1c(-c2cccc(C(F)F)c2)cnc(N)c1-c1ccc(O)cc1 [Compound 74, 4-[2-amino-5-[3-(difluoromethyl)phenyl]-4-ethyl-3-pyridyl]phenol]
12 | 50.1 µM | CCc1c(-c2cccc(OC)c2)cnc(N)c1-c1ccc(O)cc1 [Compound 52, 4-[2-amino-4-ethyl-5-(3-methoxyphenyl)-3-pyridyl]phenol]
13 | > 20 µM | CCc1c(-c2ccc(OC)cc2)cnc(N)c1-c1ccc(O)cc1 [Compound 53, 4-[2-amino-4-ethyl-5-(4-methoxyphenyl)-3-pyridyl]phenol]
14 | 10.1 µM | CCCNc1ncc(-c2ccc(O)cc2)c(CC)c1-c1ccc(O)cc1 [Compound 15, 4-[4-ethyl-5-(4-hydroxyphenyl)-6-(propylamino)-3-pyridyl]phenol]
15 | > 20 µM | CCc1c(-c2cccc(C(C)C)c2)cnc(N)c1-c1ccc(O)cc1 [Compound 47, 4-[2-amino-4-ethyl-5-(3-isopropylphenyl)-3-pyridyl]phenol]
16 | 11.7 µM | CCc1c(-c2cncc(C#N)c2)cnc(N)c1-c1ccc(O)cc1 [Compound 63, 5-[6-amino-4-ethyl-5-(4-hydroxyphenyl)-3-pyridyl]pyridine-3-carbonitrile]
17 | 45 µM | CCc1c(-c2ccc(C#N)c(F)c2)cnc(N)c1-c1ccc(O)cc1 [Compound 67, 4-[6-amino-4-ethyl-5-(4-hydroxyphenyl)-3-pyridyl]-2-fluoro-benzonitrile]
18 | 14.6 µM | CCc1c(-c2cccc3nn(C)cc23)cnc(N)c1-c1ccc(O)cc1 [Compound 85, 4-[2-amino-4-ethyl-5-(2-methylindazol-4-yl)-3-pyridyl]phenol]

Row | IC50 | SMILES
19 | 145 µM | CCc1c(-c2ccc(O)cc2)cnc(N)c1-c1cccc(CN2CCOCC2)c1 [Compound 26, 4-[6-amino-4-ethyl-5-[3-(morpholinomethyl)phenyl]-3-pyridyl]phenol]
20 | 34.4 µM | CCc1c(-c2ccc(CNS(C)(=O)=O)cc2)cnc(N)c1-c1ccc(O)cc1 [Compound 70, N-[[4-[6-amino-4-ethyl-5-(4-hydroxyphenyl)-3-pyridyl]phenyl]methyl]methanesulfonamide]
21 | 47 µM | CCc1c(-c2ccc(N)cc2)cnc(N)c1-c1ccc(O)cc1 [Compound 91, 4-[2-amino-5-(4-aminophenyl)-4-ethyl-3-pyridyl]phenol]
22 | 52.4 µM | CCc1c(-c2ccncc2)cnc(N)c1-c1ccc(O)cc1 [Compound 38, 4-[2-amino-4-ethyl-5-(4-pyridyl)-3-pyridyl]phenol]
23 | > 20 µM | CCc1c(-c2ccc(Cl)c(C)c2)cnc(N)c1-c1ccc(O)cc1 [Compound 44, 4-[2-amino-5-(4-chloro-3-methyl-phenyl)-4-ethyl-3-pyridyl]phenol]
24 | 3.6 µM | CCc1c(-c2ccc(NC(C)=O)nc2)cnc(N)c1-c1ccc(O)cc1 [Compound 75, N-[5-[6-amino-4-ethyl-5-(4-hydroxyphenyl)-3-pyridyl]-2-pyridyl]acetamide]
25 | 167 µM | CCc1c(-c2ccc(C(=O)N3CCOCC3)cc2)cnc(N)c1-c1ccc(O)cc1 [Compound 60, [4-[6-amino-4-ethyl-5-(4-hydroxyphenyl)-3-pyridyl]phenyl]-morpholino-methanone]
26 | > 20 µM | CCc1c(-c2ccc(O)cc2)cnc(N)c1-c1cccc(NC(=O)OC(C)(C)C)c1 [Compound 31, tert-butyl N-[3-[2-amino-4-ethyl-5-(4-hydroxyphenyl)-3-pyridyl]phenyl]carbamate]
27 | 19.9 µM | CCc1c(-c2ccc(F)cc2)cnc(N)c1-c1ccc(O)cc1 [Compound 34, 4-[2-amino-4-ethyl-5-(4-fluorophenyl)-3-pyridyl]phenol]
28 | 19.9 µM | CCc1c(-c2ccc(O)cc2)cnc(NCC2CC2)c1-c1ccc(O)cc1 [Compound 40, 4-[6-(cyclopropylmethylamino)-4-ethyl-5-(4-hydroxyphenyl)-3-pyridyl]phenol]
29 | 9.9 µM | CCc1c(-c2ccc(O)cc2)cnc(N)c1-c1cccc(C#N)c1 [Compound 19, 3-[2-amino-4-ethyl-5-(4-hydroxyphenyl)-3-pyridyl]benzonitrile]
30 | > 20 µM | CCc1c(-c2cc(F)cc(F)c2)cnc(N)c1-c1ccc(O)cc1 [Compound 76, 4-[2-amino-5-(3,5-difluorophenyl)-4-ethyl-3-pyridyl]phenol]
31 | > 63.3 µM | CCc1c(-c2ccc(O)cc2)cnc(N)c1-c1cccc(N2CCOCC2)c1 [Compound 22, 4-[6-amino-4-ethyl-5-(3-morpholinophenyl)-3-pyridyl]phenol]
32 | 12.5 µM | CCc1c(-c2ccc(O)cc2)cnc(N)c1-c1ccc(O)c(C#N)c1 [Compound 72, 5-[2-amino-4-ethyl-5-(4-hydroxyphenyl)-3-pyridyl]-2-hydroxy-benzonitrile]
33 | 19.3 µM | CCc1c(-c2ccc(O)cc2)cnc(N)c1-c1ccc2[nH]nc(C)c2c1 [Compound 59, 4-[6-amino-4-ethyl-5-(3-methyl-1H-indazol-5-yl)-3-pyridyl]phenol]
34 | 7.2 µM | CCc1c(-c2ccc3cn[nH]c3c2)cnc(N)c1-c1ccc(O)cc1 [Compound 84, 4-[2-amino-4-ethyl-5-(1H-indazol-6-yl)-3-pyridyl]phenol]
35 | 118 µM | CCc1c(-c2ccc(O)cc2)cnc(N)c1-c1cccc(NS(C)(=O)=O)c1 [Compound 41, N-[3-[2-amino-4-ethyl-5-(4-hydroxyphenyl)-3-pyridyl]phenyl]methanesulfonamide]

Source: US9573899B2, “USP7 inhibitor compounds and methods of use” (Genentech, Inc., priority 2015, dated 2017)
